Legend:
PARG = molecular target: T1, PARG (Homo sapiens, UniProt Q86W56); experiment: Enzymatic inhibitory activity against PARG, HTRF assay; assay type: biochemical; conditions: HTRF; PARylated PARP1 protein as substrate; 60 minutes at room temperature; read-out: IC50 against PARG enzyme
T1 construct: made in house
Outline: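 Purified PARG pre-incubated with compounds (top 10 µM, 3- to 5-fold dilutions, duplicates) 15 min at room temperature, then PARylated PARP1 substrate added for 60 min in Tris pH 7.4 buffer with DTT, EDTA/EGTA, KCl. HTRF (His-Tb/SA-XL665) read-out; IC50 by four-parameter logistic fit, normalised to DMSO and control-inhibitor wells.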

KURAMOCHI cells = experiment: Inhibition of proliferation of KURAMOCHI cells (CellTiter-Glo, intracellular ATP); assay type: cell-based; conditions: 168 h, incubated for 7 days, read-out: IC50 against KURAMOCHI cells
Outline: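 KURAMOCHI cells seeded at 4000/well, incubated overnight, then treated with 9-point 1:4 compound series from 10 µM (0.5% DMSO) for 7 days at 37°C, 5% CO2. Viability read by CellTiter-Glo luminescence; inhibition normalised to medium-only (100%) and DMSO (0%) controls, IC50 from variable-slope four-parameter fit.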

T1 sequence (Q86W56 whole entry): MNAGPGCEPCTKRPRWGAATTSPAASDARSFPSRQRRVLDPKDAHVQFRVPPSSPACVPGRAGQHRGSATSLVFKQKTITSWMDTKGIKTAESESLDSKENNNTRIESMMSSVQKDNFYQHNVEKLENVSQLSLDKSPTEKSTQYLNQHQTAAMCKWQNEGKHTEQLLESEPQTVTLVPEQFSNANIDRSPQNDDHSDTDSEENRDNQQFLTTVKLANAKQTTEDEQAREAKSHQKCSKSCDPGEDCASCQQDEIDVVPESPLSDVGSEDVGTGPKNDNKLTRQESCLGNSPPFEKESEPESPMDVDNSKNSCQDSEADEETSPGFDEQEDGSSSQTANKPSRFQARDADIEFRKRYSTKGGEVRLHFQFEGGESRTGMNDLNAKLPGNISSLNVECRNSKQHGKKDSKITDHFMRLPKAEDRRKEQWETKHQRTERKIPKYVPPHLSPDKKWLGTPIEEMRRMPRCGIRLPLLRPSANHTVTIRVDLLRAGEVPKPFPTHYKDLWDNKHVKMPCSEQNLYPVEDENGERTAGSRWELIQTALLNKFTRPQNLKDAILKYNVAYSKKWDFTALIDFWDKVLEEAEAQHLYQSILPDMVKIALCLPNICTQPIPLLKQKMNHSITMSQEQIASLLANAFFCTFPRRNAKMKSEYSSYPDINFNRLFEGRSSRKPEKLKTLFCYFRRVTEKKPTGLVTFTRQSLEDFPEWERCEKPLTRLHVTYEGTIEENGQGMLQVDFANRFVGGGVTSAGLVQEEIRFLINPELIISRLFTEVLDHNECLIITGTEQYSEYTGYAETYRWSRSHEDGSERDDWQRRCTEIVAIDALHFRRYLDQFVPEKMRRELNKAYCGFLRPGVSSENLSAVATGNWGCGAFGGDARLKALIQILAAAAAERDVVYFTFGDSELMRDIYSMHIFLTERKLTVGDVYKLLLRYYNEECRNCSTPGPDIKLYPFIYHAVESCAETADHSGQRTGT

Row | Structure (SMILES) | IC50 (PARG) [nM] | IC50 (KURAMOCHI cells) [nM]
1 | C[C@H]1CN(c2cc(S(=O)(=O)NC3(C)CC3)cc3c2nc(C2CCCCO2)n3-c2nnc(C(F)F)s2)C[C@H](C)N1 (stereo partly drawn) [Compound 077X] | 21.3 | 16
2 | C[C@H]1CN(c2cc(S(=O)(=O)NC3(C)CC3)cc3c2nc(C2CC(F)(F)CO2)n3-c2nnc(C(F)F)s2)C[C@H](C)N1 (stereo partly drawn) [Compound 079J] | 1.8 | 4
3 | C[C@H]1CN(c2cc(S(=O)(=O)NC3(C)CC3)cc3c2nc(C2CC4(CC4)CO2)n3-c2nnc(C(F)F)s2)C[C@H](C)N1 (stereo partly drawn) [Compound 079M] | 3.8 | 15
4 | C[C@H]1CN(c2cc(S(=O)(=O)NC3(C)CC3)cn3c(-c4nnc(C(F)F)s4)c([C@H]4CCCO4)nc23)C[C@H](C)N1 [Compound 080B1] | 2.2 | 4
5 | C[C@H]1CN(c2cc(S(=O)(=O)NC3(C)CC3)cn3c(-c4nnc(C(F)F)s4)c(C4CCCO4)nc23)C[C@H](C)N1 (stereo partly drawn) [Compound 080B] | 0.5 | 1
6 | C[C@H]1CN(c2cc(S(=O)(=O)NC3(C)CC3)cn3c(-c4nnc(C(F)F)s4)cnc23)C[C@H](C)N1 [Compound 080J] | 2.4 | 5
7 | C[C@H]1CN(c2cc(S(=O)(=O)NC3(C)CC3)cn3c(-c4nnc(C(F)F)s4)c(Cl)nc23)C[C@H](C)N1 [Compound 080K] | 1.7 | 4
8 | C[C@H]1CN(c2cc(S(=O)(=O)NC3(C)CC3)cc3c(-c4nnc(C(F)F)s4)c([C@H]4CCCO4)nn23)C[C@H](C)N1 [Compound 083A1] | 14.6 | 25
9 | C[C@H]1CN(c2cc(S(=O)(=O)NC3(C)CC3)cc3c(-c4nnc(C(F)F)s4)c([C@@H]4CCCO4)nn23)C[C@H](C)N1 [Compound 083A2] | 1 | 3
10 | C[C@H]1CN(c2cc(S(=O)(=O)NC3(C)CC3)cc3c(-c4nnc(C(F)F)s4)c(C4CCCO4)nn23)C[C@H](C)N1 (stereo partly drawn) [Compound 083A] | 2.1 | 4
11 | COC(C)(C)c1nc2n(-c3nnc(C(F)F)s3)c3cc(S(=O)(=O)NC4(C)CC4)cc(N4C[C@H](C)N[C@@H](C)C4)c3n2n1 [Compound 084H] | 0.7 | 3
12 | C[C@H]1CN(c2cc(S(=O)(=O)NC3(C)CC3)cc3c2n2nc(C(=O)NC4CC4)nc2n3-c2nnc(C(F)F)s2)C[C@H](C)N1 [Compound 084J] | 0.7 | 16
13 | C[C@H]1CN(c2cc(S(=O)(=O)NC3(C)CC3)cc3c2n2nc(C(=O)NC4(C)CC4)nc2n3-c2nnc(C(F)F)s2)C[C@H](C)N1 [Compound 084K] | 0.7 | 9
14 | C[C@H]1CN(c2cc(S(=O)(=O)NC3(C)CC3)cc3c2n2nc(NC(=O)C4CC4)nc2n3-c2nnc(C(F)F)s2)C[C@H](C)N1 [Compound 084L] | 1.1 | 29
15 | C[C@H]1CN(c2cc(S(=O)(=O)NC3(C)CC3)cc3c2n2nc(N4CCCC4=O)nc2n3-c2nnc(C(F)F)s2)C[C@H](C)N1 [Compound 084M] | 0.8 | 9
16 | CC(C)C(=O)N1CCN(c2cc(S(=O)(=O)NC3(C)CC3)cc3c2[nH]c(=O)n3-c2nnc(C(F)F)s2)CC1 [Compound A002] | 16.4 | 86
17 | CC(C)C(=O)N1CCN(c2cc(S(=O)(=O)NC3(C)CC3)cc3c2n(C)c(=O)n3-c2nnc(C(F)F)s2)CC1 [Compound A003] | 5.4 | 13
18 | CN(C)C(=O)N1CCN(c2cc(S(=O)(=O)NC3(C)CC3)cc3c2[nH]c(=O)n3-c2nnc(C(F)F)s2)CC1 [Compound A004] | 10.7 | 80
19 | Cn1c(=O)n(-c2nnc(C(F)F)s2)c2cc(S(=O)(=O)NC3(C)CC3)cc(N3CCNCC3)c21 [Compound A005] | 30.4 | 45
20 | CN(C)C(=O)N1CCN(c2cc(S(=O)(=O)NC3(C)CC3)cc3c2n(C)c(=O)n3-c2nnc(C(F)F)s2)CC1 [Compound A006] | 3.7 | 8
21 | CN(C)C(=O)N1CCN(c2cc(S(=O)(=O)NC3(C#N)CC3)cc3c2n(C)c(=O)n3-c2nnc(C(F)F)s2)CC1 [Compound A013] | 2.9 | 13
